# In article PMC4280904 (Journal of Veterinary Pharmacology and Therapeutics, 2014):
# Marks after values point to notes of the source that are not given here.
# Key:
# Single dose and repeated = format: in vivo, beagle dogs; settings: 30 mg/kg tablets p.o.; for AUC(0-inf): AUCinf; for Vd/F: Vz/f
# CYP3A4 = CYP3A4 (Homo sapiens, UniProt P08684); test: In vitro enzyme inhibition, recombinant CYP, fluorescent metabolites; format: in vitro ADME; settings: up to the highest concentration tested (100 μM)
# [1] = both, beagle, dog, plasma, po, 30 mg/kg, Fasted
# [2] = both, beagle, dog, plasma, po, 30 mg/kg, Fed
# [3] = both, beagle, dog, plasma, po, 30 mg/kg, Day 0, fed
# [4] = both, beagle, dog, plasma, po, 30 mg/kg, Day 5, fed
# [5] = female, beagle, dog, plasma, po, 30 mg/kg, Females
# [6] = male, beagle, dog, plasma, po, 30 mg/kg, Males
# [7] = male, beagle, dog, plasma, po, 30 mg/kg, Males, fed
# CYP3A4, sequence (P08684 whole entry): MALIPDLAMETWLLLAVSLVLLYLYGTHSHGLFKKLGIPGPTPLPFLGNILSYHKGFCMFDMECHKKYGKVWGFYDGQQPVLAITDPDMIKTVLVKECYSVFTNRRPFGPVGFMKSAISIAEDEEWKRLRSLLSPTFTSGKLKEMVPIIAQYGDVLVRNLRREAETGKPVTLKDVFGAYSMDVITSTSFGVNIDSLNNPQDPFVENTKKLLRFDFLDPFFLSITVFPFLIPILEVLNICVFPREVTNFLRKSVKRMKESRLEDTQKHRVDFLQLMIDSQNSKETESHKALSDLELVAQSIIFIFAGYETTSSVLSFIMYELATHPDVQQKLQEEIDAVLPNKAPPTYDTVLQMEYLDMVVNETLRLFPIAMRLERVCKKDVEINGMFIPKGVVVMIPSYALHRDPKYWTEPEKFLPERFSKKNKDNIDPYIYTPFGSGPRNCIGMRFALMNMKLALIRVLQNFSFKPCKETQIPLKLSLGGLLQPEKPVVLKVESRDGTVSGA
smiles,measurement,setting,value
"O=C1N=C(N2CCOCC2)CN1c1ccc(Cl)cc1 [Imepitoin, 1-(4-chlorophenyl)-4-morpholino-imidazolin-2-one]",maximal plasma concentrations,Single dose and repeated; beagle dogs,14.9 to 17.2 µg/mL
same,reduction of total AUC by co-administration with food,Single dose and repeated; crossover fed vs fasted,30%
same,AUCinf greater for fasted dogs,Single dose and repeated; fasted vs fed,30%
same,Tmax,Single dose and repeated; Day 5 (after 4 days BID),1.75 ^* h
same,Terminal T½,Single dose and repeated; Fasted,1.47 h
same,Terminal T½,Single dose and repeated; Fed,1.95 ^* h
same,AUC(0-inf),Single dose and repeated; [1],90300 ng·h/mL
same,AUC(0-inf),Single dose and repeated; [2],69200 ng·h/mL
same,CL/F,Single dose and repeated; [3],5.42 mL/min/kg
same,CL/F,Single dose and repeated; [4],8.92 mL/min/kg
same,CL/F,Single dose and repeated; [1],5.33 mL/min/kg
same,CL/F,Single dose and repeated; [2],6.95 mL/min/kg
same,Cmax,Single dose and repeated; [3],15000 ng/mL
same,Cmax,Single dose and repeated; [4],14800 ng/mL
same,Cmax,Single dose and repeated; [1],17200 ng/mL
same,Cmax,Single dose and repeated; [2],14900 ng/mL
same,half-life,"Single dose and repeated; both, beagle, dog, plasma, po, 30 mg/kg, Terminal T½, Fed",120 min
same,Tmax,"Single dose and repeated; both, beagle, dog, plasma, po, 30 mg/kg, Tmax, Day 0, fed",2.6 h
same,Tmax,"Single dose and repeated; both, beagle, dog, plasma, po, 30 mg/kg, Tmax, Day 5, fed",1.44 h
same,Tmax,"Single dose and repeated; both, beagle, dog, plasma, po, 30 mg/kg, Tmax, Fasted",2.17 h
same,Tmax,"Single dose and repeated; both, beagle, dog, plasma, po, 30 mg/kg, Tmax, Fed",2.02 h
same,Vd/F,Single dose and repeated; [3],0.892 L/kg
same,Vd/F,Single dose and repeated; [4],1.43 L/kg
same,Vd/F,Single dose and repeated; [1],0.663 L/kg
same,Vd/F,Single dose and repeated; [2],1.13 L/kg
same,CL/F,Single dose and repeated; [5],5.83 mL/min/kg
same,Cmax,Single dose and repeated; [5],18100 ng/mL
same,Tmax,"Single dose and repeated; female, beagle, dog, plasma, po, 30 mg/kg, Tmax, Females",1.89 h
same,Vd/F,Single dose and repeated; [5],0.833 L/kg
same,AUC(0-inf),Single dose and repeated; [6],75500 ng·h/mL
same,CL/F,Single dose and repeated; [6],6.33 mL/min/kg
same,CL/F,Single dose and repeated; [7],7.33 mL/min/kg
same,Cmax,Single dose and repeated; [6],14200 ng/mL
same,Cmax,Single dose and repeated; [7],12500 ng/mL
same,Tmax,"Single dose and repeated; male, beagle, dog, plasma, po, 30 mg/kg, Tmax, Males",2.3 h
same,Tmax,"Single dose and repeated; male, beagle, dog, plasma, po, 30 mg/kg, Tmax, Males, fed",2.44 h
same,Vd/F,Single dose and repeated; [6],0.899 L/kg
same,Vd/F,Single dose and repeated; [7],1.19 L/kg
same,influence on activity of CYP3A4,CYP3A4,did not influence
